Source: patent US20240016784A1, “Y BOX BINDING PROTEIN 1 INHIBITORS” (Oregon Health & Science University, priority 2020, published 2024)

Legend:
[1] = system: OVCAR4, OVCAR5 and ID8 cells; assay: Cell viability (MTT) assay, ovarian cancer cell lines; assay type: cell-based; details: 48 h of treatment
Excerpt: We tested the relationship between AzPs dose and the viability of human ovarian cancer cell lines and the ID8 murine ovarian cancer cell line.
(§1) FIG. 1A) Lead optimization of SU093 to obtain SU056. FIG. 1B) IC50 values of SU093 and SU056 on various ovarian cancer cells. Clonogenic survival of OC cells treated with SU093 or SU056. […] FIG. 1C) Representative colony formation from respective wells. FIG. 1D) Number of colonies formed after SU093 and SU056 treatment. […] FIG. 1F) Cell cycle distribution of propidium iodide (PI)-stained OVCAR8, SKOV3, and ID8 cells. […] FIG. 1G) Effects of SU093 and SU056 on apoptotic cell death analyzed by Annexin-FITC staining. […] FIG. 1H) Cell migration assay.

ovarian cancer cells = assay: Apoptotic cell death assay (Annexin-FITC); assay type: cell-based; details: 24 h treatment; Annexin-FITC staining
Description: To determine whether proliferation inhibition was the dominant factor driving the reduction in OC viability seen with AzP treatment, we used propidium iodide and annexin-FITC stains with flow cytometry to measure the distribution of cell cycle phases after treatment. […] Furthermore, in the Boyden chamber assay for cell migration, SU093 inhibited cell migration by 40-46% (1 μM, P<0.05) in different OC cell lines.
Apoptotic cell death assay: Cells were plated and treated as described in cell cycle analysis assay above. Treated cells were incubated for 24 h and both live and dead cells were collected. Cells were stained with Annexin V and PI using FITC Annexin V apoptosis detection kit (BD Pharmingen, San Jose, CA) by following the manufacturer's protocol. Guava® easyCyte™ Flow Cytometer was used to analyze the stained cells.
as §1

[2] = Liver toxicity parameters (ALT, AST, ALKP) in ID8 study; assay type: in vivo, C57BL/6 mice; details: 20 mg/kg daily IP, 42 days
Description: These promising results led us to test SU093 and SU056 in vivo. C57BL/6 mice were implanted with 2×10^6 firefly luciferase (luc+)-expressing ID-8 syngeneic ovarian cancer cells subcutaneously. Once the tumors reached 100 mm^3 in size, we began daily intraperitoneal treatment with SU093 and SU056 at 20 mg/kg (vehicle control 30% PEG-300 in saline). Tumor growth was monitored via bioluminescence imaging (IVIS).
In vivo xenograft model and drug efficacy study: All animal experiments were reviewed and approved by the Animal Care and Use Committee of Stanford University, CA, USA. Luciferase tagged ID8 (2×10^6) or OVCAR8 (5×10^6) cells were implanted into the right flank of 6-7-week-old female C57BL/6 mice and NOD/SCID mice, respectively. Respective treatment began after tumors grew to 100-200 mm^3 diameters. The ID8 syngeneic mice model was treated with a vehicle (30% PEG-300 in saline), 20 mg/kg SU093, and 20 mg/kg SU056 intraperitoneally (IP) daily for 42 days. At the end of treatment, blood was collected from each mouse and analyzed for liver toxicity parameters, including Alanine Aminotransferase (ALT), Aspartate Aminotransferase (AST), and Alkaline Phosphatase (ALKP). […]

[3] = Liver microsomes metabolic profiling; assay type: in vitro ADME
Excerpt: FIGS. 15A-15E. […] SU056 treatment at increasing concentrations dose not challenge the dietary behavior as reflected by change in body weight FIG. 15A) Mice and FIG. 15B) Rat. […] Liver microsomes were used for the purpose of metabolic profiling.

## O=C1OCC2=C1C(c1cccc(F)c1)c1cc3c(cc1N2CCO)OCO3 (stereo not shown) [SU056, 9-(3-fluorophenyl)-5-(2-hydroxyethyl)-6,9-dihydro-[1,3]dioxolo[4,5-g]furo[3,4-b]quinolin-8(5H)-one]
[1]
  decrease of IC50 compared to SU093: up to 2 fold
Ovarian cancer cells
  apoptotic cell death: induce apoptotic cell death
[2]
  impact on blood chemistry indicators (AST, ALT, alkaline phosphatase): no significant impact
[3]
  half-life: 40 min
